Data reported in patent publication US12251422B2, “Compositions and methods for treating neurological and other disorders” (Rush University Medical Center, priority 2018, dated 2025).

What was measured:
IL-1β and iNOS = test: mRNA expression of IL-1β and iNOS in BV-2 microglial cells (RT-PCR, real-time PCR); format: cell-based; details: 10 μM peptide 1 h
Description: FIG. 4(A-S). Effect of wtTIDM and mTIDM peptides on the induction of NF-κB activation and the expression of proinflammatory molecules in microglial cells. BV-2 microglial cells preincubated with 10 μM wtTIDM/mTIDM peptides for 1 h were stimulated with 1 μM fibrillar Aβ1-42 (A-C), 1 μM MPP+ (D-F), 250 ng/ml LTA (G-I), […] LPS (J-L), 1 μM flagellin (M-O), and 1 μM CpG DNA (P-R) under serum-free condition. After 1 h of stimulation, the activation of NF-κB was monitored in nuclear extracts by EMSA (A, fibrillar Aβ; D, MPP+; G, LTA; J, LPS; M, flagellin, P; CpG DNA). After 4 h of stimulation, the mRNA expression of IL-1β (B, E, H, K, N, & Q) and iNOS (C, F, I, L, O, & R) was monitored by real-time PCR (B-C, fibrillar Aβ; E-F, MPP+; H-I, LTA; K-L, LPS; N-O, flagellin; Q-R, CpG DNA) (n=2 replicates/dose in 3 independent experiments). ap<0.001 vs control; bp<0.001 vs stimuli by two-sample t-tests. […]
FIG. 13 (A-F). […] After 4 h of stimulation, the mRNA expression of IL-1β and iNOS was monitored by RT-PCR (n=2 replicates/condition in 3 independent experiments).
FIG. 14 (A-D). […] A) After 1 h of stimulation, the activation of NF-κB was monitored in nuclear extracts by EMSA. […]
DNase-digested RNA was analyzed by real-time PCR in the AβI-Prism7700 sequence detection system (Applied Biosystems, Foster City, CA) as described earlier (23, 57).

Tg-Tlr2−/− mice = test: Plaques and memory in 5×FAD mice null for Tlr2 (Tg-Tlr2−/−); format: in vivo, mouse; details: 0.1 mg/kg body wt/2 d intranasal, 30 d
Description: FIG. 24 (A-H). […] A) Tlr2−/− mice were bred with Tg (5×FAD mice) and representative PCR of Tlr2, App695 and Psen1 transgene DNA expression is shown for 6-month old non-Tg, Tg (5×FAD), Tg-Tlr2−/− (F7), and Tlr2−/− mice. Average body weight (B) and wet brain weight (C) of non-Tg, Tg, Tg-Tlr2−/−, and Tlr2−/− mice. For wet brain weight, the olfactory lobes and brainstem were removed. […] After 30 d of treatment, hippocampal sections were immunolabeled with 6E10 mAb (D). […] Mice were tested for Barnes maze (F, track plot; G, latency; H, number of errors made). Four mice (n=4) were used in each group. NS, not significant by two-sample t-tests.

NF-κB = NF-κB activation by EMSA in primary Tlr2−/− microglia; format: cell-based, mouse; details: peptide 1 h, 1 μM fibrillar Aβ1-42 for 1 h
Description: FIG. 16 (A-F). […] Primary microglia isolated from WT (A) and TLR2 (−/−) (B) mice were treated with different concentrations of wtTIDM peptide for 1 h followed by stimulation with 1 μM fibrillar Aβ1-42 under serum-free condition. After 1 h of stimulation, the activation of NF-κB was monitored by EMSA. WT (C & D) and TLR2 (−/−) (E & F) microglia were treated with different concentrations of wtTIDM and mTIDM peptides for 1 h followed by stimulation with 1 μM fibrillar Aβ1-42 under serum-free condition. After 18 h of stimulation, levels of TNFα (C & E) and IL-1β (D & F) were monitored in supernatants by ELISA (n=2 replicates/condition in 3 independent experiments). ap<0.001 vs control; bp<0.001 vs stimuli by two-sample t-tests.
Nuclear extracts were isolated and EMSA was carried out as described before (22, 23).

5×FAD Tg mice = test: Neuronal apoptosis and plasticity-related molecules in hippocampus of 5×FAD Tg mice; format: in vivo, mouse; details: 0.1 mg/kg body wt/2 d intranasal, 30 d
Excerpt: FIG. 6 (A-N). Intranasal delivery of wtTIDM, but not mTIDM, peptide inhibits neuronal apoptosis in vivo in the hippocampus and improves memory and learning in Tg mice. […] After 30 d of treatment, mice were sacrificed and hippocampal sections were double-labeled for TUNEL & NeuN (A). […] Hippocampal extracts of all groups of mice (n=4) were immunoblotted for cleaved caspase 3 (D). Actin was run as loading control. E) Bands were scanned and values (cleaved caspase 3/Actin) are presented as relative to non-Tg control. […] Protein levels of PSD-95. NR2A and GluR1 were monitored in hippocampal extracts by Western blot (F). Bands were scanned and values (G, PSD-95/Actin; H, NR2A/Actin; I, GluR1/Actin) are presented as relative to non-Tg control. […] Mice were tested for Barnes maze (J, latency; K, number of errors made) and T maze (L, number of positive turns; M, number of negative turns). Short-term memory was also monitored by novel object recognition test, which is represented by discrimination index (N). Eight mice (n=8) were used in each group and results were analyzed by one-way ANOVA.
B6SJL-Tg (APPSwFlLon,PSEN1*M146L*L286V) 6799Vas/J transgenic (5×FAD or termed here as Tg) mice were purchased from Jackson Laboratories (Bar Harbor, ME). […] Briefly, TIDM peptides were dissolved in 5 μl normal saline, mice were hold in supine position and saline was delivered into one nostril using a pipetman.
It was performed using a commercially available kit (TdT FragEL™, Calbiochem) as described before (10, 22).

CC[C@H](C)[C@H](NC(=O)[C@H](CCCCN)NC(=O)[C@@H](NC(=O)[C@H](CCC(N)=O)NC(=O)[C@H](CCCNC(=N)N)NC(=O)[C@@H](N)CC(=O)O)[C@@H](C)CC)C(=O)N[C@@H](Cc1c[nH]c2ccccc12)C(=O)N[C@@H](Cc1ccccc1)C(=O)N[C@@H](CCC(N)=O)C(=O)N[C@@H](CC(N)=O)C(=O)N[C@@H](CCCNC(=N)N)C(=O)N[C@@H](CCCNC(=N)N)C(=O)N[C@@H](CCSC)C(=O)N[C@@H](CCCCN)C(=O)N[C@@H](Cc1c[nH]c2ccccc12)C(=O)N[C@@H](CCCCN)C(=O)N[C@@H](CCCCN)C(=O)N1CCC[C@H]1C(=O)NCC(=O)N[C@@H](C)C(=O)N[C@@H](Cc1c[nH]cn1)C(=O)N[C@@H](CCC(N)=O)C(=O)N[C@@H](CCCCN)C(=O)O [wtTIDM, drqikiwfqnrrmkwkkPGAHQK]
inhibition of expression of proinflammatory molecules (IL-1β, iNOS) induced by LTA (IL-1β and iNOS; 250 ng/ml LTA for 4 h): inhibited | inhibition of expression of proinflammatory molecules (IL-1β, iNOS) induced by fibrillar Aβ (IL-1β and iNOS; 1 μM fibrillar Aβ1-42 for 4 h): inhibited | reduction of plaque load and improvement of spatial learning and memory in Tg-Tlr2−/− mice (Tg-Tlr2−/− mice): remained unable to do so | inhibition of fibrillar Aβ1-42-induced activation of NF-κB in Tlr2−/− microglia (NF-κB): remained unable to inhibit | PSD-95, NR2A and GluR1 proteins in the hippocampus (5×FAD Tg mice): significant restoration | elevated level of cleaved caspase 3 in the hippocampus (5×FAD Tg mice): reduced | neuronal apoptosis in the hippocampus (TUNEL & NeuN) (5×FAD Tg mice): attenuated
